As usually defined, the melting point is the temperature of the solid-liquid transition.

A value given as a limit tells only on which side of the number the result lay.

In the case of `O=C1C2CC=CCN2C(=O)N1c1cc(O)c(Cl)cc1F` (stereo unspecified), the melting point lay within 195 to 197 °C.

For `COCc1cc(N)n2nc(SC)c(S(=O)(=O)c3ccccc3)c2n1`, the melting point was greater than 230 °C.

The compound `Cn1cc(C(=O)NCc2ccc(Cl)cc2)c(=O)c2cc(CN3CCOc4ccccc43)ccc21` showed a melting point of 193 to 194 °C.

On to `CCCc1csc(/C=C/c2cccc(NCCCC(=O)O)c2)n1`, for which the melting point was in the range of 115 to 116 °C.

`CC(C)(C)COc1c(-c2ccc(S(N)(=O)=O)c(F)c2)cnn(CC(F)(F)F)c1=O` had a melting point of 144 to 145 °C.

As to `CC(C)(C)c1cc(-c2csc(C3(N4CCOCC4)CCOCC3)n2)cc(C(C)(C)C)c1O`, the melting point lay in the range of 172 to 174 °C.

In turn, `CCCCc1cc(C(=O)O)c(=O)n(CCCC)c1C` showed a melting point of 106 to 108 °C.

The compound `CC1CC2(C)C(CCC3C4CCC(C5(C)OCCO5)C4(C)CC(=O)C32)CC1O` (stereo unspecified) returned a melting point of 167 to 168 °C.

Regarding `OCCOCn1cc(I)c2c(Cl)ncnc21`, the melting point is 154 to 155 °C.

With `CC1(C)CC(=O)Nc2cc(-c3nc4ccccc4[nH]3)ccc21`, the melting point lay in the range of 314 to 316 °C.

Compound `CCCC(=O)Nc1ccc(-c2cc(C(C)(C)C)c(O)c(C(C)(C)C)c2)cc1` yielded a melting point of 180 to 181 °C.

In the case of `O=C(O)Cc1cc2c3ccccc3[nH]c(=O)n2n1`, the melting point is 253 to 254 °C.

`O=C1NC(=O)C(Cc2ccc(OCCON=Cc3ccccc3)cc2)S1` (stereo unspecified): the melting point is 126 to 129 °C.

The compound `CC1c2ccccc2-c2sc(Br)cc2N1S(=O)(=O)c1ccc(O)cc1` (stereo unspecified) gave a melting point of 209 to 211 °C.

`O=C1CN2C(=O)CCC2N1` (stereo unspecified) gave a melting point of 155 to 157 °C.

Consider `Cc1c(Cl)cncc1Cl`, for which the melting point was 46 to 47 °C.

Compound `CCc1cccc(C)c1NC(=S)NC(C)(C)C` showed a melting point of 94 to 96 °C.

The compound `CC(C)C[C@H](NC(=O)OCc1ccccc1)C(=O)NC(C)(C)C(=O)CSCc1ccco1` came in with a melting point of 80 to 82 °C.

Take `Cc1oc(-c2ccccc2)nc1COc1ccc(CCCCc2nnn[nH]2)cc1`: the melting point was in the range of 116 to 117 °C.

On to `c1ccc2c(c1)cc1n2CC2(CCNC2)C1` (stereo unspecified), for which the melting point was 90 to 92 °C.

Take `CCOC(=O)N1CCN(CCS(=O)c2ccccc2)CC1` (stereo unspecified): the melting point is 76 °C.

`COc1cc(N)c(Cl)cc1C(=O)NCC1CCN(CCCCCOCc2ccc(Cl)cc2)CC1` gave a melting point of 131 to 132 °C.

The compound `CNC(=O)c1ncnc(C)c1NC(=O)c1cc(Cl)nn1-c1ncccc1Cl` came in with a melting point of 205 to 207 °C.

With `COc1cccc2c1CC(NC(=O)C(C)C)CC2` (stereo unspecified), the melting point is 167 to 168 °C.

As to `CNC(=O)c1c[nH]c2ccc(C(=O)c3c(C)c(OC)c4ccccn34)cc2c1=O`, the melting point was 324 °C.

On to `O=c1c2c(CCc3ccccc3)n[nH]c2c2cccnc2n1-c1ccccc1`, for which the melting point was in the range of 248 to 250 °C.

Regarding `Cc1nc2c(OCc3c(Cl)ccc(N(C)C(=O)CN4C(=O)c5ccccc5C4=O)c3Cl)cccn2c1Br`, the melting point fell in the range of 229 to 230 °C.

`Cc1ccc(-c2cc(C)ccc2C=CC#Cc2ccc(C(=O)O)cc2)cc1` returned a melting point of 71 to 73 °C.

`N/C(=C1/Sc2ccc(Cl)cc2C1=O)c1ccccc1Cl` had a melting point of 199 to 201 °C.

`COC(=O)c1ccc(Cn2ccn(C3CCc4ccccc4C3)c2=S)cc1` (stereo unspecified): the melting point fell in the range of 133 to 135 °C.

With `CON(C)C(=O)Nc1ccc(OCCc2ccc3c(c2)CC(C)(C)O3)nc1`, the melting point lay in the range of 79 to 80 °C.

As for `COCC(=O)C1CCC2C3CCC4CC(OC(C)=O)CCC4(C)C3C(=O)CC12C` (stereo unspecified), the melting point was found to be 93 °C.

Compound `Cc1nc(-c2ccccc2)[nH]c1-c1cnc(-c2ccccc2)nc1` came in with a melting point of 138 °C.

`CC(=O)C(C)(C#N)c1ccc2c(c1)Cc1cccnc1O2` (stereo unspecified) came in with a melting point of 164 °C.

The compound `CNC(=O)C(=NOC)c1c(F)cccc1COc1ccccc1C` returned a melting point of 93 °C.

Compound `Cc1cc(C)cc(-c2nc(NC(=O)c3cccnc3)sc2-c2ccncc2)c1` gave a melting point of 267 to 270 °C.

Values taken from a melting point compilation (Tetko et al.; mined from patent text by program, amines drawn as free bases though some values may be those of a salt).
